Read-outs that look alike come from different tables or passages of the source.
Columns and labels:
Assay type in all cases: in vivo
wild oat (Avena fatua) = assay: Test B postemergence; conditions: Avena fatua, post-emergence
Method in brief: (§1)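 Plants treated pre- or postemergence were compared visually with controls after 13 to 15 days. Ratings ran from 0, no effect, to 100, complete control.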

[1] = tested on: blackgrass (Alopecurus myosuroides); assay: Test B postemergence; conditions: Alopecurus myosuroides, post-emergence
Method in brief: as §1

[2] = tested on: umbrella sedge (Cyperus difformis); assay: Test B flooded paddy test; conditions: Cyperus difformis, Flood, 1000 g ai/ha; scale 0 to 100; read-out: Plant response rating, Sedge, Umbrella
Method in brief: (§2)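 Visual injury scoring (0 = no effect, 100 = complete control) versus controls made 13 to 15 days after treatment in the greenhouse. Test species were grown in flooded paddy to the 2-leaf stage: rice, barnyardgrass, umbrella sedge, duck salad.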

rice (Oryza sativa) = assay: Test B flooded paddy test; conditions: Oryza sativa, Flood, 1000 g ai/ha; scale 0 to 100; read-out: Plant response rating, Rice
Method in brief: as §2

[3] = tested on: barnyardgrass (Echinochloa crus-galli); assay: Test B flooded paddy test; conditions: Echinochloa crus-galli, Flood, 1000 g ai/ha; scale 0 (no effect) to 100 (complete control); read-out: Plant response rating, Barnyardgrass
Method in brief: as §2

[4] = tested on: duck salad (Heteranthera limosa); assay: Test B flooded paddy test; conditions: Heteranthera limosa, Flood, 1000 g ai/ha; scale 0 to 100; read-out: Plant response rating, Ducksalad
Method in brief: as §2

[5] = tested on: lambsquarters (Chenopodium album); assay: Test B pre/postemergence; conditions: Chenopodium album; for pest or weed control at 125 g/ha: 125 g ai/ha; for pest or weed control at 500 g/ha: 500 g ai/ha
Method in brief: as §1

[6] = tested on: morningglory (Ipomoea coccinea); assay: Test B pre/postemergence; conditions: Ipomoea; for pest or weed control at 125 g/ha: 125 g ai/ha; for pest or weed control at 500 g/ha: 500 g ai/ha
Method in brief: as §1

[7] = tested on: barnyardgrass (Echinochloa crus-galli); assay: Test B pre/postemergence; conditions: Echinochloa crus-galli; for pest or weed control at 125 g/ha: 125 g ai/ha; for pest or weed control at 500 g/ha: 500 g ai/ha
Method in brief: as §1

[8] = tested on: cocklebur (Xanthium strumarium); assay: Test B pre/postemergence; conditions: Xanthium strumarium; for pest or weed control at 125 g/ha: 125 g ai/ha; for pest or weed control at 500 g/ha: 500 g ai/ha
Method in brief: as §1

[9] = tested on: velvetleaf (Abutilon theophrasti); assay: Test B pre/postemergence; conditions: Abutilon theophrasti; for pest or weed control at 125 g/ha: 125 g ai/ha; for pest or weed control at 500 g/ha: 500 g ai/ha
Method in brief: as §1

[10] = tested on: giant foxtail (Setaria faberii); assay: Test B pre/postemergence; conditions: Setaria faberi; for pest or weed control at 125 g/ha: 125 g ai/ha; for pest or weed control at 500 g/ha: 500 g ai/ha
Method in brief: as §1

corn (Zea mays) = assay: Test B pre/postemergence; conditions: Zea mays
Method in brief: as §1

[11] = tested on: pigweed (Amaranthus retroflexus); assay: Test B pre/postemergence; conditions: Amaranthus retroflexus; for pest or weed control at 125 g/ha: 125 g ai/ha; for pest or weed control at 500 g/ha: 500 g ai/ha
Method in brief: as §1

[12] = tested on: crabgrass (Digitaria sanguinalis); assay: Test B pre/postemergence; conditions: Digitaria sanguinalis; for pest or weed control at 125 g/ha: 125 g ai/ha; for pest or weed control at 500 g/ha: 500 g ai/ha
Method in brief: as §1

[13] = tested on: wheat (Triticum aestivum); assay: Test B pre/postemergence; conditions: Triticum aestivum; for plant injury at 125 g/ha: 125 g ai/ha; for plant injury at 500 g/ha: 500 g ai/ha
Method in brief: as §1

[14] = tested on: Surinam grass (Brachiaria decumbens); assay: Test B pre/postemergence; conditions: Urochloa decumbens; for pest or weed control at 125 g/ha: 125 g ai/ha; for pest or weed control at 500 g/ha: 500 g ai/ha
Method in brief: as §1

[15] = pre-emergence, Preemergence, scale 0 to 100 (0 no effect, 100 complete control), read-out: Plant response rating, Wheat

Work on CCOC(=O)c1nc(C(C)(C)C)nc(N)c1Br [Compound 36] yielded a pest or weed control at 125 g/ha (wild oat (Avena fatua); 125 g ai/ha, scale 0 to 100 (0 no effect, 100 complete control), read-out: Oat, Wild plant response rating) of 0%, a pest or weed control at 500 g/ha (wild oat (Avena fatua); 500 g ai/ha, scale 0 to 100, read-out: Plant response rating, Oat, Wild) of 40% and a pest or weed control at 125 g/ha ([1]; 125 g ai/ha, scale 0 to 100 (0 no effect, 100 complete control), read-out: Blackgrass plant response rating) of 0%. The pest or weed control at 500 g/ha ([1]; 500 g ai/ha, scale 0 to 100, read-out: Plant response rating, Blackgrass) was 40%, the pest or weed control at 1000 g/ha [2] was 0% and the plant injury at 1000 g/ha (rice (Oryza sativa)) was 0%. The pest or weed control at 1000 g/ha [3] was 0%, the pest or weed control at 1000 g/ha [4] was 0% and the pest or weed control at 125 g/ha ([5]; post-emergence, Postemergence, scale 0 to 100 (0 no effect, 100 complete control), read-out: Lambsquarters plant response rating) was 40%. For the same molecule, the pest or weed control at 500 g/ha ([5]; post-emergence, Postemergence, scale 0 to 100, read-out: Plant response rating, Lambsquarters) was 50%, the pest or weed control at 125 g/ha ([5]; pre-emergence, Preemergence, scale 0 to 100 (0 no effect, 100 complete control), read-out: Plant response rating, Lambsquarters) was 0% and the pest or weed control at 500 g/ha ([5]; pre-emergence, Preemergence, scale 0 to 100 (0 no effect, 100 complete control), read-out: Lambsquarters plant response rating) was 40%. It also gave a pest or weed control at 125 g/ha ([6]; post-emergence, Postemergence, scale 0 to 100 (0 no effect, 100 complete control), read-out: Morningglory plant response rating) of 10%, a pest or weed control at 500 g/ha ([6]; post-emergence, Postemergence, scale 0 to 100, read-out: Plant response rating, Morningglory) of 70% and a pest or weed control at 125 g/ha ([6]; pre-emergence, Preemergence, scale 0 to 100 (0 no effect, 100 complete control), read-out: Plant response rating, Morningglory) of 0%. It also gave a pest or weed control at 500 g/ha ([6]; pre-emergence, Preemergence, scale 0 to 100 (0 no effect, 100 complete control), read-out: Morningglory plant response rating) of 0%, a pest or weed control at 125 g/ha ([7]; post-emergence, Postemergence, scale 0 to 100 (0 no effect, 100 complete control), read-out: Barnyardgrass plant response rating) of 0% and a pest or weed control at 500 g/ha ([7]; post-emergence, Postemergence, scale 0 to 100, read-out: Plant response rating, Barnyardgrass) of 0%. For the same molecule, the pest or weed control at 125 g/ha ([7]; pre-emergence, Preemergence, scale 0 to 100 (0 no effect, 100 complete control), read-out: Plant response rating, Barnyardgrass) was 0%, the pest or weed control at 500 g/ha ([7]; pre-emergence, Preemergence, scale 0 to 100 (0 no effect, 100 complete control), read-out: Barnyardgrass plant response rating) was 0% and the pest or weed control at 125 g/ha ([8]; post-emergence, Postemergence, scale 0 to 100 (0 no effect, 100 complete control), read-out: Cocklebur plant response rating) was 20%. The pest or weed control at 500 g/ha ([8]; post-emergence, Postemergence, scale 0 to 100, read-out: Plant response rating, Cocklebur) was 70%, the pest or weed control at 125 g/ha ([8]; pre-emergence, Preemergence, scale 0 to 100 (0 no effect, 100 complete control), read-out: Plant response rating, Cocklebur) was 10% and the pest or weed control at 500 g/ha ([8]; pre-emergence, Preemergence, scale 0 to 100 (0 no effect, 100 complete control), read-out: Cocklebur plant response rating) was 60%. For the same molecule, the pest or weed control at 125 g/ha ([9]; post-emergence, Postemergence, scale 0 to 100 (0 no effect, 100 complete control), read-out: Velvetleaf plant response rating) was 20%, the pest or weed control at 500 g/ha ([9]; post-emergence, Postemergence, scale 0 to 100, read-out: Plant response rating, Velvetleaf) was 40% and the pest or weed control at 125 g/ha ([9]; pre-emergence, Preemergence, scale 0 to 100 (0 no effect, 100 complete control), read-out: Plant response rating, Velvetleaf) was 10%. It also gave a pest or weed control at 500 g/ha ([9]; pre-emergence, Preemergence, scale 0 to 100 (0 no effect, 100 complete control), read-out: Velvetleaf plant response rating) of 40%, a pest or weed control at 125 g/ha ([10]; post-emergence, Postemergence, scale 0 to 100 (0 no effect, 100 complete control), read-out: Foxtail, Giant plant response rating) of 0% and a pest or weed control at 500 g/ha ([10]; post-emergence, Postemergence, scale 0 to 100, read-out: Plant response rating, Foxtail, Giant) of 10%. For the same molecule, the pest or weed control at 125 g/ha ([10]; pre-emergence, Preemergence, scale 0 to 100 (0 no effect, 100 complete control), read-out: Plant response rating, Foxtail, Giant) was 0%, the pest or weed control at 500 g/ha ([10]; pre-emergence, Preemergence, scale 0 to 100 (0 no effect, 100 complete control), read-out: Foxtail, Giant plant response rating) was 0% and the plant injury at 125 g/ha (corn (Zea mays); post-emergence, Postemergence, 125 g ai/ha, scale 0 to 100 (0 no effect, 100 complete control), read-out: Corn plant response rating) was 0%. For the same molecule, the Corn plant response rating (crop injury, 0 = no effect, 100 = complete kill) at 500 g/ha (corn (Zea mays); post-emergence, Postemergence, 500 g ai/ha, scale 0 to 100) was 0%, the Corn plant response rating (crop injury, 0 = no effect, 100 = complete kill) at 125 g/ha (corn (Zea mays); pre-emergence, Preemergence, 125 g ai/ha, scale 0 to 100 (0 no effect, 100 complete control)) was 0% and the plant injury at 500 g/ha (corn (Zea mays); pre-emergence, Preemergence, 500 g ai/ha, scale 0 to 100 (0 no effect, 100 complete control), read-out: Corn plant response rating) was 0%. The pest or weed control at 125 g/ha ([11]; post-emergence, Postemergence, scale 0 to 100 (0 no effect, 100 complete control), read-out: Pigweed plant response rating) was 20%, the pest or weed control at 500 g/ha ([11]; post-emergence, Postemergence, scale 0 to 100, read-out: Plant response rating, Pigweed) was 30% and the pest or weed control at 125 g/ha ([11]; pre-emergence, Preemergence, scale 0 to 100 (0 no effect, 100 complete control), read-out: Plant response rating, Pigweed) was 0%. For the same molecule, the pest or weed control at 500 g/ha ([11]; pre-emergence, Preemergence, scale 0 to 100 (0 no effect, 100 complete control), read-out: Pigweed plant response rating) was 20%, the pest or weed control at 125 g/ha ([12]; post-emergence, Postemergence, scale 0 to 100 (0 no effect, 100 complete control), read-out: Crabgrass plant response rating) was 0% and the pest or weed control at 500 g/ha ([12]; post-emergence, Postemergence, scale 0 to 100, read-out: Plant response rating, Crabgrass) was 0%. For the same molecule, the pest or weed control at 125 g/ha ([12]; pre-emergence, Preemergence, scale 0 to 100 (0 no effect, 100 complete control), read-out: Plant response rating, Crabgrass) was 0%, the pest or weed control at 500 g/ha ([12]; pre-emergence, Preemergence, scale 0 to 100 (0 no effect, 100 complete control), read-out: Crabgrass plant response rating) was 0% and the plant injury at 125 g/ha ([13]; post-emergence, Postemergence, scale 0 to 100 (0 no effect, 100 complete control), read-out: Wheat plant response rating) was 0%. For the same molecule, the plant injury at 500 g/ha ([13]; post-emergence, Postemergence, scale 0 to 100, read-out: Plant response rating, Wheat) was 40%, the plant injury at 125 g/ha [13, 15] was 0% and the plant injury at 500 g/ha [13, 15] was 0%. It also gave a pest or weed control at 125 g/ha ([14]; post-emergence, Postemergence, scale 0 to 100 (0 no effect, 100 complete control), read-out: Surinam Grass plant response rating) of 0%, a pest or weed control at 500 g/ha ([14]; post-emergence, Postemergence, scale 0 to 100, read-out: Plant response rating, Surinam Grass) of 0% and a pest or weed control at 125 g/ha ([14]; pre-emergence, Preemergence, scale 0 to 100 (0 no effect, 100 complete control), read-out: Plant response rating, Surinam Grass) of 0%. For the same molecule, the pest or weed control at 500 g/ha ([14]; pre-emergence, Preemergence, scale 0 to 100 (0 no effect, 100 complete control), read-out: Surinam Grass plant response rating) was 0%.
